Test results taken from US20140128380A1, “METHODS OF MODULATING THE ACTIVITY OF THE MC1 RECEPTOR AND TREATMENT OF CONDITIONS RELATED TO THIS RECEPTOR” (Mimetica Pty Ltd, priority 2009, published 2014).

target: T1, human MC1R (hMC1R) (Homo sapiens, UniProt Q01726); test: Human MC1R radioligand binding assay (displacement of 125I-labeled NDP-MSH, Perkin Elmer hMC1R membranes); conditions: displacement of [125I]NDP-MSH, compounds tested as trifluoroacetate or hydrochloride salts or free base
T1 construct: purchased Perkin Elmer ES-195-M400UA
Experimental: Assessments of compound binding to human MC1R (hMC1R)) by displacement of an ^125I-labeled NDP-MSH receptor ligand peptide were performed essentially as described in the data sheets produced by Perkin Elmer to accompany their frozen hMC1R membranes (Perkin Elmer catalog number ES-195-M400UA).
[^125I] NDP-MSH: radiolabeled in house and purified by HPLC:
Na ^125I (0.5 mCi, 17.4 Ci/mg) was added to 50 μL sodium phosphate (50 mM, pH 7.4) in an eppendorf tube precoated with IODOGEN. After incubation for 10 mins the phosphate buffer containing the iodine was added to NDP-MSH (10 ul at 1 mg/mL) in a separate eppendorf tube. This was incubated for a further 10 mins. The iodinated NDP-MSH was purified by HPLC on a Zorbax SB 300 column using solvent A: 0.05% TFA and solvent B: 90% acetonitrile 0.045% TFA with a linear gradient, 0-67% B over 60 mins.
Perkin Elmer frozen hMC1 membranes: catalog number ES-195-M400UA, 0.4 mL/vial; 400 microassays/vial, 0.78 mg/mL protein concentration
Vials of frozen membranes were thawed rapidly immediately before use, diluted with binding buffer and vortexed. Resuspended membranes were kept on ice until they were added to the wells of the plate.
Assays were performed in 96 well polypropylene plates. […] This was incubated for 1 hr at 37° C.

T1 sequence (Q01726 whole entry): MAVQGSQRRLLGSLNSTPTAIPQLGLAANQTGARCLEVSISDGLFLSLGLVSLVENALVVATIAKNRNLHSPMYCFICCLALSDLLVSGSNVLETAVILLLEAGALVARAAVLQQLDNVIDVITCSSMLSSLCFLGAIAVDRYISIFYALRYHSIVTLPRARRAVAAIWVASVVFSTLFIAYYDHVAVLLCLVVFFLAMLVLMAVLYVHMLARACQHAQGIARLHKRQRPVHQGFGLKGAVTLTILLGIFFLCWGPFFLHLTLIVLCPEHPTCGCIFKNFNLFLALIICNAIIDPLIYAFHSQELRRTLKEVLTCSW

Compound | IC50 [µM]
CC1CCC(C)N1CC[C@@H]1N[C@H](CNC(=O)/C=C/c2ccc(Cl)cc2)CCN(CC(c2ccccc2)c2ccccc2)C1=O (stereo partly drawn) [Compound 160, (E)-3-(4-chlorophenyl)-N-(((3S,5S)-3-(2-(2,5-dimethylpyrrolidin-1-yl)ethyl)-1-(2,2-diphenylethyl)-2-oxo-1,4-diazepan-5-yl)methyl)acrylamide] | < 10
N=C(N)NCCC[C@@H]1N[C@H](CNC(=O)c2cnc3ccccc3c2)CCN(CC(c2ccccc2)c2ccccc2)C1=O [Compound 109, N-(((3S,5S)-1-(2,2-diphenylethyl)-3-(3-guanidinopropyl)-2-oxo-1,4-diazepan-5-yl)methyl)quinoline-3-carboxamide] | < 10
CNC(=O)[C@H](Cc1ccc2ccccc2c1)N1CC[C@H](CNC(=O)[C@@H](N)Cc2ccc(F)cc2)N[C@@H](CCCNC(=N)N)C1=O [Compound 166, (S)-2-amino-3-(4-fluorophenyl)-N-(((3S,5R)-3-(3-guanidinopropyl)-1-((S)-1-(methylamino)-3-(naphthalen-2-yl)-1-oxopropan-2-yl)-2-oxo-1,4-diazepan-5-yl)methyl)propanamide] | < 10
CC[C@H](CN1CC[C@@H](CNC(=O)c2ccccc2-c2ccc(Cl)cc2)N[C@@H](CCN2CCCCC2)C1=O)c1ccccc1 [Compound 179, 4′-chloro-N-(((3S,5S)-2-oxo-1-((S)-2-phenylbutyl)-3-(2-(piperidin-1-yl)ethyl)-1,4-diazepan-5-yl)methyl)biphenyl-2-carboxamide] | < 10
CCC(CN1CC[C@@H](CNC(=O)/C=C/c2ccc(Cl)cc2)N[C@@H](CCN)C1=O)c1ccccc1 (stereo partly drawn) [Compound 153, (E)-N-(((3S,5S)-3-(2-aminoethyl)-2-oxo-1-(2-phenylbutyl)-1,4-diazepan-5-yl)methyl)-3-(4-chlorophenyl)acrylamide] | < 10
CC(C)(NC(=O)/C=C/c1ccc(Cl)cc1)[C@@H]1CCN(CC(c2ccccc2)c2ccccc2)C(=O)[C@H](CCN2CCCCC2)N1 [Compound 165, (E)-3-(4-chlorophenyl)-N-(2-((3S,5S)-1-(2,2-diphenylethyl)-2-oxo-3-(2-(piperidin-1-yl)ethyl)-1,4-diazepan-5-yl)propan-2-yl)acrylamide] | < 10
CC[C@H](CN1CC[C@@H](CNC(=O)c2ccc3cc(Cl)ccc3c2)N[C@@H](CCCN2CCCCC2)C1=O)c1ccccc1 [Compound 163, 6-chloro-N-(((3S,5S)-2-oxo-1-((S)-2-phenylbutyl)-3-(3-(piperidin-1-yl)propyl)-1,4-diazepan-5-yl)methyl)-2-naphthamide] | < 10
N=C(N)NCCC[C@@H]1N[C@H](CNC(=O)c2ccc3ccccc3c2)CCN(CCC2CC3CCC2C3)C1=O (stereo partly drawn) [Compound 131, N-(((3S,5S)-1-(2-(bicyclo[2.2.1]heptan-2-yl)ethyl)-3-(3-guanidinopropyl)-2-oxo-1,4-diazepan-5-yl)methyl)-2-naphthamide] | < 10
N=C(N)NCCC[C@H]1N[C@@H](CNC(=O)c2ccc(-c3ccccc3)cc2)CCN(CC2CCCCC2)C1=O [Compound 176, N-(((3R,5R)-1-(cyclohexylmethyl)-3-(3-guanidinopropyl)-2-oxo-1,4-diazepan-5-yl)methyl)biphenyl-4-carboxamide] | < 10
O=C(/C=C/c1ccc(F)cc1F)NC[C@@H]1CCN(CC(c2ccccc2)c2ccccc2)C(=O)[C@H](CCN2CCCCC2)N1 [Compound 158, (E)-3-(2,4-difluorophenyl)-N-(((3S,5S)-1-(2,2-diphenylethyl)-2-oxo-3-(2-(piperidin-1-yl)ethyl)-1,4-diazepan-5-yl)methyl)acrylamide] | < 10
CC[C@H](CN1CC[C@H](CNC(=O)c2ccc3cc(Cl)ccc3c2)N[C@H](CCN2CCCCC2)C1=O)c1ccccc1 [Compound 183, 6-chloro-N-(((3R,5R)-2-oxo-1-((S)-2-phenylbutyl)-3-(2-(piperidin-1-yl)ethyl)-1,4-diazepan-5-yl)methyl)-2-naphthamide] | < 10
O=C(/C=C/c1ccc(Br)cc1)NC[C@@H]1CCN(CC(c2ccccc2)c2ccccc2)C(=O)[C@H](CCN2CCCCC2)N1 [Compound 161, (E)-3-(4-bromophenyl)-N-(((3S,5S)-1-(2,2-diphenylethyl)-2-oxo-3-(2-(piperidin-1-yl)ethyl)-1,4-diazepan-5-yl)methyl)acrylamide] | < 10
N=C(N)NCCC[C@@H]1N[C@H](CNC(=O)c2ccc3ccccc3c2)CCN(CC(c2ccccc2)c2ccccc2)C1=O [Compound 107, N-(((3S,5S)-1-(2,2-diphenylethyl)-3-(3-guanidinopropyl)-2-oxo-1,4-diazepan-5-yl)methyl)-2-naphthamide] | < 10
N=C(N)NCCC[C@@H]1N[C@H](CNC(=O)c2ccc(-c3ccccc3)cc2)CCN(CC(c2ccccc2)c2ccccc2)C1=O [Compound 108, N-(((3S,5S)-1-(2,2-diphenylethyl)-3-(3-guanidinopropyl)-2-oxo-1,4-diazepan-5-yl)methyl)biphenyl-4-carboxamide] | < 10
CNC(=O)[C@H](Cc1ccc2ccccc2c1)N1CC[C@H](CNCc2ccc(F)cc2)N[C@@H](CCCNC(=N)N)C1=O [Compound 143, (S)-2-((3S,5R)-5-((4-fluorobenzylamino)methyl)-3-(3-guanidinopropyl)-2-oxo-1,4-diazepan-1-yl)-N-methyl-3-(naphthalen-2-yl)propanamide] | < 10
CC(C)(NC(=O)/C=C/c1ccc(Cl)cc1)[C@@H]1CCN(CC(c2ccccc2)c2ccccc2)C(=O)[C@H](CCN)N1 [Compound 164, (E)-N-(2-((3S,5S)-3-(2-aminoethyl)-1-(2,2-diphenylethyl)-2-oxo-1,4-diazepan-5-yl)propan-2-yl)-3-(4-chlorophenyl)acrylamide] | < 10

Now from value to compound:

IC50 [µM] | Compound
< 10 | N=C(N)NCCC[C@@H]1N[C@H](CNC(=O)c2cccc(Oc3ccccc3)c2)CCN(CC(c2ccccc2)c2ccccc2)C1=O [Compound 111, N-(((3S,5S)-1-(2,2-diphenylethyl)-3-(b3-guanidinopropyl)-2-oxo-1,4-diazepan-5-yl)methyl)-3-phenoxybenzamide]
< 10 | NCCC[C@@H]1N[C@H](CNC(=O)c2ccc(-c3ccc(Cl)cc3)o2)CCN(CC(c2ccccc2)c2ccccc2)C1=O [Compound 128]
< 10 | CC(C)c1ccc(/C=C/C(=O)NC[C@@H]2CCN(CC(c3ccccc3)c3ccccc3)C(=O)[C@H](CCN3CCCCC3)N2)cc1 [Compound 155, (E)-N-(((3S,5S)-1-(2,2-diphenylethyl)-2-oxo-3-(2-(piperidin-1-yl)ethyl)-1,4-diazepan-5-yl)methyl)-3-(4-isopropylphenyl)acrylamide]
< 10 | O=C(NC[C@@H]1CCN(CC(c2ccccc2)c2ccccc2)C(=O)[C@H](CCCNC2CCCCC2)N1)c1ccc2ccccc2c1 [Compound 124, N-(((3S,5S)-3-(3-(cyclohexylamino)propyl)-1-(2,2-diphenylethyl)-2-oxo-1,4-diazepan-5-yl)methyl)-2-naphthamide]
< 10 | NC[C@@H]1N[C@H](CNC(=O)c2ccc(Cl)c(Cl)c2)CCN(Cc2cc(Cl)cc(Cl)c2)C1=O [Compound 148, N-(((3S,5S)-3-(aminomethyl)-1-(3,5-dichlorobenzyl)-2-oxo-1,4-diazepan-5-yl)methyl)-3,4-dichlorobenzamide]
< 10 | CNC(=O)[C@H](Cc1ccc2ccccc2c1)N1CC[C@H](CNC(=O)[C@@H](N)Cc2ccc(Cl)cc2)N[C@@H](CCCNC(=N)N)C1=O [Compound 173, (S)-2-amino-3-(4-chlorophenyl)-N-(((3S,5R)-3-(3-guanidinopropyl)-1-((S)-1-(methylamino)-3-(naphthalen-2-yl)-1-oxopropan-2-yl)-2-oxo-1,4-diazepan-5-yl)methyl)propanamide]
< 10 | NCC[C@@H]1N[C@H](CNC(=O)/C=C/c2ccc(Cl)cc2)CCN(Cc2cc(Cl)cc(Cl)c2)C1=O [Compound 141, (E)-N-(((3S,5S)-3-(2-aminoethyl)-1-(3,5-dichlorobenzyl)-2-oxo-1,4-diazepan-5-yl)methyl)-3-(4-chlorophenyl)acrylamide]
< 10 | N=C(N)NCCC[C@@H]1N[C@H](CNC(=O)c2cc3ccccc3[nH]2)CCN(CC(c2ccccc2)c2ccccc2)C1=O [Compound 113, N-(((3S,5S)-1-(2,2-diphenylethyl)-3-(3-guanidinopropyl)-2-oxo-1,4-diazepan-5-yl)methyl)-1H-indole-2-carboxamide]
< 10 | CC[C@H](CN1CC[C@H](CNC(=O)c2ccc3cc(Cl)ccc3c2)N[C@H](CC(C)(C)N2CCCCC2)C1=O)c1ccccc1 [Compound 172, 6-chloro-N-(((3R,5R)-3-(2-methyl-2-(piperidin-1-yl)propyl)-2-oxo-1-((S)-2-phenylbutyl)-1,4-diazepan-5-yl)methyl)-2-naphthamide]
< 10 | N=C(N)NCCC[C@@H]1N[C@H](CNC(=O)c2ccc3ccccc3c2)CCN(CCC2CCCCC2)C1=O [Compound 130, N-(((3S,5S)-1-(2-cyclohexylethyl)-3-(3-guanidinopropyl)-2-oxo-1,4-diazepan-5-yl)methyl)-2-naphthamide]
